Reference: patent US9855273B2, “Combination therapy for MDS” (priority 2013, dated 2018)

What was measured:
[1] = test system: MDS/AML cell lines (MDSL, TF1, THP1, HL60); test: Viable cell growth (trypan blue exclusion) of MDS/AML cell lines; type: cell-based, human; conditions: IRAK-Inh 10 μM, ABT-263 0.1 μM
Description: Acute myeloid leukemic cell lines, HL60, THP1, and TF-1 were purchased from the American Type Culture Collection. MOLM13 were purchased from AddexBio. The myelodysplastic cell line, MDS-L, was provided by Dr. Kaoru Tohyama (Kawasaki Medical School, Okayama, Japan) (Matsuoka et al., 2010). […] Additionally, both the MDSL and TF-1 cell lines were cultured in the presence of 10 ng/mL human recombinant IL-3 (Stemcell Technologies).

MDSL cells = test: MDSL xenograft, cells pre-treated in vitro, NSGS mice; type: in vivo; conditions: MDSL treated in vitro with IRAK-Inh 10 μM and/or ABT-263 0.1 μM; DMSO 28 days
Description: Xenograftment of NOD/SCID-IL2Rγ(NSG) and NSG-hSCF/hGM-CSF/hIL3 (NSGS) MDSL cells (1×10^6-5×10^6) were injected into the tail veins of 8-week old sublethally irradiated ([…]) NSG or NSG animals engineered to express human SCF, GM-CSF, and IL3 (NSGS) as previously described (Wunderlich et al., 2010). Mice were monitored by performing complete blood counts (Drew Hemavet 950FS). Following red cell lysis, human MDSL cells were identified by hCD45-FITC staining. In vivo delivery of IRAK-Inh approach is adapted from previous reports (Yang et al., 2011): IRAK-Inh was diluted in DMSO (5 mM) and further dissolved in sterile phosphate buffered saline (PBS; pH 7.2). Animals were injected i.p. with 2.12 mg/kg IRAK-Inh 3× weekly.
To determine whether IRAK-Inh can delay human MDS-like disease in vivo, MDSL were pre-treated with IRAK-Inh (10 μM) for 24 hrs in vitro and subsequently injected intravenously (i.v.) into NSG (5×10^6 cells) and NSGS (1×10^6 cells) recipient mice (FIG. 4A). This approach permitted us to evaluate the cell autonomous effect of IRAK-Inh on MDS cell viability and engraftment without altering endogenous IRAK1 function in the mouse.
Moreover, we investigated whether combined IRAK1 and BCL2 inhibition could delay human MDS-like disease in vivo. MDSL cells were treated with IRAK-Inh (10 μM) and/or ABT-263 (0.1 μM) for 48 hrs in vitro and subsequently injected i.v. into NSGS mice (FIG. 4A).

normal CD34+ cells = test: Colony formation in methylcellulose, normal CD34+ cells; conditions: individual or combination treatment
Description: The effect of IRAK-Inh on leukemic progenitor function was evaluated in methylcellulose containing IRAK-Inh. […] As an alternative approach, MDS/AML cells were pre-treated with IRAK-Inh for 24 hours and then plated in methylcellulose.

CC1(C)CCC(c2ccc(Cl)cc2)=C(CN2CCN(c3ccc(C(=O)NS(=O)(=O)c4ccc(N[C@H](CCN5CCOCC5)CSc5ccccc5)c(S(=O)(=O)C(F)(F)F)c4)cc3)CC2)C1 [ABT-263]
sensitivity of HL60 cells ([1]; HL60, alone or combined): refractory | MDS/AML cell line growth and survival ([1]; alone or co-treatment): modest effects | median survival (MDSL cells): ~35 days | viability and hematopoietic progenitor function of normal CD34+ cells (normal CD34+ cells): not affected
